Patent publication US8829007B2 (priority 2009, dated 2014)
pEC50, pIC50: −log10 of the molar value. Where two headings read alike, the source gives them in different places.

How the values were obtained:
[1] = tested on: A/PR/8/34 influenza virus; assay: microbe, parasite or virus in culture; type: cell-based
[2] = tested on: influenza A virus (A/PR/8/34); assay: microbe, parasite or virus in culture; type: cell-based; details: Influenza A virus, PR/8, MDCK, read-out: IC50 (mean all)
[3] = Influenza A virus, PR/8, MDCK, MDCK cells infected with A/PR/8/34, bDNA viral RNA; read-out: EC50 (mean all)
[4] = MDCK cells infected with A/PR/8/34, cell protection (CPE)
[5] = Influenza A virus, PR/8, MDCK, read-out: EC50 (mean all)
[6] = Influenza A virus, PR/8, MDCK; read-out: EC50 (mean all)

C#CCCC(=O)N1CCC[C@@H](CNc2nc(-c3c[nH]c4ncc(Cl)cc34)ncc2F)C1 [Compound 52, (S)-1-(3-((2-(5-chloro-1H-pyrrolo[2,3-b]pyridin-3-yl)-5-fluoropyrimidin-4-ylamino)methyl)piperidin-1-yl)pent-4-yn-1-one]
pEC50 [1, 3]: > 5.30
pIC50 [2, 4]: > 5.30

O=C(O)[C@H]1CC[C@@H](C(=O)N2CCC[C@H](CNc3nc(-c4c[nH]c5ncc(Cl)cc45)ncc3F)C2)C1 [Compound 55, (1S,3R)-3-((R)-3-((2-(5-chloro-1H-pyrrolo[2,3-b]pyridin-3-yl)-5-fluoropyrimidin-4-ylamino)methyl)piperidine-1-carbonyl)cyclopentanecarboxylic acid]
pEC50 [1, 3]: > 5.30
pIC50 [2, 4]: > 5.30

O=C(Cc1ccccc1)N1CCC[C@H](CNc2nc(-c3c[nH]c4ncc(Cl)cc34)ncc2F)C1 [Compound 56, (R)-1-(3-((2-(5-chloro-1H-pyrrolo[2,3-b]pyridin-3-yl)-5-fluoropyrimidin-4-ylamino)methyl)piperidin-1-yl)-2-phenylethanone]
pEC50 [1, 3]: > 5.30
pIC50 [2, 4]: > 5.30

CC(C)=CC(=O)N1CCC[C@H](CNc2nc(-c3c[nH]c4ncc(Cl)cc34)ncc2F)C1 [Compound 57, (R)-1-(3-((2-(5-chloro-1H-pyrrolo[2,3-b]pyridin-3-yl)-5-fluoropyrimidin-4-ylamino)methyl)piperidin-1-yl)-3-methylbut-2-en-1-one]
pEC50 [1, 5]: > 5.30
pIC50 [2]: > 5.30

O=S(=O)(/C=C/c1ccccc1)N1CCC[C@H](CNc2nc(-c3c[nH]c4ncc(Cl)cc34)ncc2F)C1 [Compound 60, (R,E)-2-(5-chloro-1H-pyrrolo[2,3-b]pyridin-3-yl)-5-fluoro-N-((1-(styrylsulfonyl)piperidin-3-yl)methyl)pyrimidin-4-amine]
pEC50 [1, 3]: > 5.30
pIC50 [2, 4]: > 5.30

O=S(=O)(C1CC1)N1CCC[C@H](CNc2nc(-c3c[nH]c4ncc(Cl)cc34)ncc2F)C1 [Compound 61, (R)-2-(5-chloro-1H-pyrrolo[2,3-b]pyridin-3-yl)-N-((1-(cyclopropylsulfonyl)piperidin-3-yl)methyl)-5-fluoropyrimidin-4-amine]
pEC50 [1, 3]: > 5.30
pIC50 [2, 4]: > 5.30

COc1cccc(S(=O)(=O)N2CCC[C@H](CNc3nc(-c4c[nH]c5ncc(Cl)cc45)ncc3F)C2)c1 [Compound 62, (R)-2-(5-chloro-1H-pyrrolo[2,3-b]pyridin-3-yl)-5-fluoro-N-((1-(3-methoxyphenylsulfonyl)piperidin-3-yl)methyl)pyrimidin-4-amine]
pEC50 [1, 3]: > 5.30
pIC50 [2, 4]: > 5.30

O=S(=O)(c1ccc(F)cc1)N1CCC[C@H](CNc2nc(-c3c[nH]c4ncc(Cl)cc34)ncc2F)C1 [Compound 64, (R)-2-(5-chloro-1H-pyrrolo[2,3-b]pyridin-3-yl)-5-fluoro-N-((1-(4-fluorophenylsulfonyl)piperidin-3-yl)methyl)pyrimidin-4-amine]
pEC50 [1, 3]: > 5.30
pIC50 [2, 4]: 4.70 to 5.30

O=S(=O)(c1cccc(F)c1)N1CCC[C@H](CNc2nc(-c3c[nH]c4ncc(Cl)cc34)ncc2F)C1 [Compound 65, (R)-2-(5-chloro-1H-pyrrolo[2,3-b]pyridin-3-yl)-5-fluoro-N-((1-(3-fluorophenylsulfonyl)piperidin-3-yl)methyl)pyrimidin-4-amine]
pEC50 [1, 3]: > 5.30
pIC50 [2, 4]: > 5.30

Cc1cccc(S(=O)(=O)N2CCC[C@H](CNc3nc(-c4c[nH]c5ncc(Cl)cc45)ncc3F)C2)c1 [Compound 66, (R)-2-(5-chloro-1H-pyrrolo[2,3-b]pyridin-3-yl)-5-fluoro-N-((1-(m-tolylsulfonyl)piperidin-3-yl)methyl)pyrimidin-4-amine]
pEC50 [1, 3]: > 5.30
pIC50 [2, 4]: > 5.30

O=S(=O)(c1cccc(Br)c1)N1CCC[C@H](CNc2nc(-c3c[nH]c4ncc(Cl)cc34)ncc2F)C1 [Compound 67, (R)—N-((1-(3-bromophenylsulfonyl)piperidin-3-yl)methyl)-2-(5-chloro-1H-pyrrolo[2,3-b]pyridin-3-yl)-5-fluoropyrimidin-4-amine]
pEC50 [1, 3]: > 5.30
pIC50 [2, 4]: > 5.30

O=C(Oc1ccccc1)N1CCC[C@H](CNc2nc(-c3c[nH]c4ncc(Cl)cc34)ncc2F)C1 [Compound 68, (R)-phenyl 3-((2-(5-chloro-1H-pyrrolo[2,3-b]pyridin-3-yl)-5-fluoropyrimidin-4-ylamino)methyl)piperidine-1-carboxylate]
pEC50 [1, 6]: > 5.30
pIC50 [2]: 4.70 to 5.30

COc1ccccc1OC(=O)N1CCC[C@H](CNc2nc(-c3c[nH]c4ncc(Cl)cc34)ncc2F)C1 [Compound 69, (R)-2-methoxyphenyl 3-((2-(5-chloro-1H-pyrrolo[2,3-b]pyridin-3-yl)-5-fluoropyrimidin-4-ylamino)methyl)piperidine-1-carboxylate]
pEC50 [1, 6]: > 5.30
pIC50 [2]: > 5.30

O=C(Oc1ccccc1Cl)N1CCC[C@H](CNc2nc(-c3c[nH]c4ncc(Cl)cc34)ncc2F)C1 [Compound 70, (R)-2-chlorophenyl 3-((2-(5-chloro-1H-pyrrolo[2,3-b]pyridin-3-yl)-5-fluoropyrimidin-4-ylamino)methyl)piperidine-1-carboxylate]
pEC50 [1, 6]: > 5.30
pIC50 [2]: > 5.30

C=C(C)OC(=O)N1CCC[C@H](CNc2nc(-c3c[nH]c4ncc(Cl)cc34)ncc2F)C1 [Compound 74, (R)-prop-1-en-2-yl 3-((2-(5-chloro-1H-pyrrolo[2,3-b]pyridin-3-yl)-5-fluoropyrimidin-4-ylamino)methyl)piperidine-1-carboxylate]
pEC50 [1, 5]: > 5.30
pIC50 [2]: > 5.30

O=C(Nc1cccc(F)c1)N1CCC[C@H](CNc2nc(-c3c[nH]c4ncc(Cl)cc34)ncc2F)C1 [Compound 75, (R)-3-((2-(5-chloro-1H-pyrrolo[2,3-b]pyridin-3-yl)-5-fluoropyrimidin-4-ylamino)methyl)-N-(3-fluorophenyl)piperidine-1-carboxamide]
pEC50 [1, 3]: > 5.30
pIC50 [2, 4]: > 5.30

COc1cccc(NC(=O)N2CCC[C@H](CNc3nc(-c4c[nH]c5ncc(Cl)cc45)ncc3F)C2)c1 [Compound 76, (R)-3-((2-(5-chloro-1H-pyrrolo[2,3-b]pyridin-3-yl)-5-fluoropyrimidin-4-ylamino)methyl)-N-(3-methoxyphenyl)piperidine-1-carboxamide]
pEC50 [1, 3]: > 5.30
pIC50 [2, 4]: > 5.30

Cc1cccc(NC(=O)N2CCC[C@H](CNc3nc(-c4c[nH]c5ncc(Cl)cc45)ncc3F)C2)c1 [Compound 78, (R)-3-((2-(5-chloro-1H-pyrrolo[2,3-b]pyridin-3-yl)-5-fluoropyrimidin-4-ylamino)methyl)-N-m-tolylpiperidine-1-carboxamide]
pEC50 [1, 3]: > 5.30
pIC50 [2, 4]: > 5.30

CC(C)(CC(=O)O)CC(=O)N1CCC[C@H](CNc2nc(-c3c[nH]c4ncc(Cl)cc34)ncc2F)C1 [Compound 80, (R)-5-(3-((2-(5-chloro-1H-pyrrolo[2,3-b]pyridin-3-yl)-5-fluoropyrimidin-4-ylamino)methyl)piperidin-1-yl)-3,3-dimethyl-5-oxopentanoic acid]
pEC50 [1, 3]: > 5.30
pIC50 [2, 4]: > 5.30

O=C(O)CC1(CC(=O)N2CCC[C@H](CNc3nc(-c4c[nH]c5ncc(Cl)cc45)ncc3F)C2)CCCC1 [Compound 81, (R)-2-(1-(2-(3-((2-(5-chloro-1H-pyrrolo[2,3-b]pyridin-3-yl)-5-fluoropyrimidin-4-ylamino)methyl)piperidin-1-yl)-2-oxoethyl)cyclopentyl)ethanoic acid]
pEC50 [1, 3]: > 5.30
pIC50 [2, 4]: > 5.30

O=C(c1ccccc1Cl)N1CCC[C@H](CNc2nc(-c3c[nH]c4ncc(Cl)cc34)ncc2F)C1 [Compound 84, (R)-(3-((2-(5-chloro-1H-pyrrolo[2,3-b]pyridin-3-yl)-5-fluoropyrimidin-4-ylamino)methyl)piperidin-1-yl)(2-chlorophenyl)methanone]
pEC50 [1, 3]: > 5.30
pIC50 [2, 4]: > 5.30

O=C(c1ccc(F)c(F)c1)N1CCC[C@H](CNc2nc(-c3c[nH]c4ncc(Cl)cc34)ncc2F)C1 [Compound 85, (R)-(3-((2-(5-chloro-1H-pyrrolo[2,3-b]pyridin-3-yl)-5-fluoropyrimidin-4-ylamino)methyl)piperidin-1-yl)(3,4-difluorophenyl)methanone]
pEC50 [1, 3]: > 5.30
pIC50 [2, 4]: 4.70 to 5.30

O=C(c1cc(F)cc(F)c1)N1CCC[C@H](CNc2nc(-c3c[nH]c4ncc(Cl)cc34)ncc2F)C1 [Compound 86, (R)-(3-((2-(5-chloro-1H-pyrrolo[2,3-b]pyridin-3-yl)-5-fluoropyrimidin-4-ylamino)methyl)piperidin-1-yl)(3,5-difluorophenyl)methanone]
pEC50 [1, 3]: > 5.30
pIC50 [2, 4]: > 5.30

O=S(=O)(c1ccccc1)N1CCC[C@H](CNc2nc(-c3c[nH]c4ncc(Cl)cc34)ncc2F)C1 [Compound 87, (R)-2-(5-chloro-1H-pyrrolo[2,3-b]pyridin-3-yl)-5-fluoro-N-((1-(phenylsulfonyl)piperidin-3-yl)methyl)pyrimidin-4-amine]
pEC50 [1, 3]: > 5.30
pIC50 [2, 4]: > 5.30

O=S(=O)(c1cccs1)N1CCCC(CNc2nc(-c3c[nH]c4ncc(Cl)cc34)ncc2F)C1 (stereo not drawn) [Compound 89]
pEC50 [1, 3]: > 5.30
pIC50 [2, 4]: > 5.30

O=S(=O)(c1ccccc1F)N1CCC[C@H](CNc2nc(-c3c[nH]c4ncc(Cl)cc34)ncc2F)C1 [Compound 90, (R)-2-(5-chloro-1H-pyrrolo[2,3-b]pyridin-3-yl)-5-fluoro-N-((1-(2-fluorophenylsulfonyl)piperidin-3-yl)methyl)pyrimidin-4-amine]
pEC50 [1, 3]: > 5.30
pIC50 [2, 4]: > 5.30

Cn1cnc(S(=O)(=O)N2CCC[C@H](CNc3nc(-c4c[nH]c5ncc(Cl)cc45)ncc3F)C2)c1 [Compound 91, (R)-2-(5-chloro-1H-pyrrolo[2,3-b]pyridin-3-yl)-5-fluoro-N-((1-(1-methyl-1H-imidazol-4-ylsulfonyl)piperidin-3-yl)methyl)pyrimidin-4-amine]
pEC50 [1, 3]: > 5.30
pIC50 [2, 4]: > 5.30
